A short description of the data set: logP (octanol/water) at 25° C. The class given is physicochemical. As for the experimental part:
In one aspect, the lipophilic ingredient is one having a partition coefficient between octanol and water (log P (octanol/water) at 25° C.) of greater than or equal to 1.5, specifically greater than or equal to 2.0, more specifically greater than or equal to 2.5, yet more specifically greater than or equal to 3.0, still yet more specifically greater than or equal to 3.5, and more specifically greater than or equal to 4.0. The partition coefficient of material can be determined experimentally or calculated using commercially available software.
The term logP denotes the decadic logarithm of the partition coefficient of the neutral form, usually between octanol and water. The low end stands for a more hydrophilic compound, the high end for a more lipophilic compound. `C/C=C/C=C\CC/C=C/C(=O)NCC(C)C` [spilanthol, N-isobutyl-2E,6Z,8E-decatrienamide] returned a logP of 3.4.
`CCNC(=O)C(CC)(C(C)C)C(C)C` [N-ethyl-2,2-diisopropylbutanamide] showed a logP of 3.6.
In turn, `CCNC(=O)C1CC(C)CCC1C(C)C` (stereo not shown) [N-ethyl-p-menthane-3-carboxamide (WS-3), N-ethyl-p-menthane-3-carboxamide] displayed a logP of 3.81.
For `CC(C)[C@@H]1CC[C@@H](C)C[C@H]1OC(=O)CCCC(=O)O` [monomenthyl glutarate], the “logP (octanol/water) at 25° C.” value worked out at 4.12.
With `CCOC(=O)CNC(=O)C1CC(C)CCC1C(C)C` (stereo not shown) [ethyl 2-[(5-methyl-2-propan-2-ylcyclohexanecarbonyl)amino]acetate], the logP came to 3.38.
On the same count and under the same terms, to `CNC(=O)C(C)(C(C)C)C(C)C` [N,2,3-trimethyl-2-propan-2-ylbutanamide] belongs 2.48; to `CC1CCC(C(C)C)C(O)C1` (stereo not shown) [menthol, reference compound], 3.4.

(Values after patent publication US20130316042A1, “ENHANCED RELEASE OF LIPOPHILIC INGREDIENTS FROM CHEWING GUM WITH HYDROCOLLOIDS” (CADBURY ADAMS MEXICO, S. DE R.L. DE C.V., priority 2010, published 2013).)
